Source: patent publication US7045311B2, “Whole cell assay systems for cell surface proteases” (Monogram Biosciences, Inc., priority 2001, dated 2006)
“Also recorded” adds a separate entry of the source.

Experiments:
Assay type in all cases: cell-based
ADAM 17 = biological target: T1, ADAM 17 (Homo sapiens, UniProt P78536); test: Whole cell ADAM 17 assay: cleavage of TNF-α-FL by THP-1 cells, capillary electrophoresis; details: for formation of TNF-α-FL cleavage product (ADAM 17 activity): TNF-α-FL substrate, reagent added to the assay
T1 construct: endogenous in cells; host or cells: THP-1 cells (whole, live)
T1 sequence (P78536 215-824): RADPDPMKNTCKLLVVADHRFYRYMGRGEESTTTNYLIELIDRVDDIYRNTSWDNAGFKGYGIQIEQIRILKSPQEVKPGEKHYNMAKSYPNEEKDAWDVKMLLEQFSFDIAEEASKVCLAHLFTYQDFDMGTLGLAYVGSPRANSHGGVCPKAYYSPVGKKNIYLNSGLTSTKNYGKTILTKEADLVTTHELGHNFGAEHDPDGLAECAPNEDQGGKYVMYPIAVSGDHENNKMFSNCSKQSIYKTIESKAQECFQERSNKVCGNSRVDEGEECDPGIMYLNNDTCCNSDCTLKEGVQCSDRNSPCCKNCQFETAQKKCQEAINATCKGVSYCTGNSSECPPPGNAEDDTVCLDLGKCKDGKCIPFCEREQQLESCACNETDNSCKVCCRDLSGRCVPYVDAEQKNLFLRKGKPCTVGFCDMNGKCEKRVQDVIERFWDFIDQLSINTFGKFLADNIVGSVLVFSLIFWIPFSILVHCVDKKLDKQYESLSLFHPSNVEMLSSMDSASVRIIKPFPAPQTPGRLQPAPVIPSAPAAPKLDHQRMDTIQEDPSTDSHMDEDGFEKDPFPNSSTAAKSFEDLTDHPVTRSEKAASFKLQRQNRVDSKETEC
Description: A substrate for a cell surface protease, typically an ADAM, or preferably a plurality of substrates for different proteases, each having a distinct detectable label, is added to a live cell suspension in a buffer. Typically, about 1.5×10^5 cells are used in 50 μL medium. […] The cells are washed three times on ice with buffer (lacking the protein and anti-proteases noted below) before use. A suitable buffer consists of 50 mM HEPES (pH 7.2), 150 mM NaCl, 2 mM MgCl2, 0.1% human serum albumin (HSA), with serine and thiol protease inhibitor cocktail (Roche Diagnostics). Depending on the peptide, nonspecific binding may be blocked by addition of a protein selected from human serum albumin (HSA), bovine serum albumin (BSA), casein (CAS), gamma globulins (GG), and fetal bovine serum (FBS).
All component additions are done on ice, and the tubes are then transferred to a temperature controlled water bath for incubation. The assay mixture is incubated at a fixed temperature for a fixed time, e.g., 37° C. for 1 hr. Following incubation, the tubes are removed from the incubator and placed again on ice.
For experiments employing additional reagents, such as a GPCR agonist or a protein kinase C stimulator such as PMA (phorbol myristate acetate), the additional reagent is added at the beginning of the incubation period.
A suitable separation medium consists of 1% PEO in 50 mM HEPES (pH 7.2). […] In a typical separation, detection occurs at 5 mm down from the injection site (cross), an argon-ion laser is used as the excitation source, PMT is typically set at 600V to 900V, and gain is set to 5 μA/V at a frequency of 10 Hz. The 10× objective is used, and the sampling rate is 200/sec. Well volumes are typically 2 μL.
For peak analysis, time normalized peak areas for peptide cleavage products are divided by time normalized fluorescein (or aminomethyl fluorescein) peak areas to arrive at the product/fluorescein normalized area ratios.
A TNF-α peptide fragment, known to be a substrate for ADAM 17, was labeled at the N-terminus with fluorescein. […] After a one-hour incubation, aminomethyl fluorescein was added as an electrophoretic marker, and the reaction supernatant was separated by capillary electrophoresis.

ADAM 10 [1] = test: Whole cell ADAM 10 assay in HEK-293 cells
Description: (§1) For experiments involving GPCR's, adherent cells are plated into 96-well plates at 5×10^4 cells/well and serum starved for 18–24 hr prior to use. A suitable buffer comprises 10 mM HEPES (pH 7.2), 1× HANKS, 0.1% human serum albumin (HSA), and serine/thiol protease inhibitor cocktail (Roche Diagnostics). Cells are washed three times with the HANKS-HEPES buffer, lacking protein and anti-protease, prior to use.
(§2) The products of the assays are conveniently analyzed by capillary electrophoresis on a microfluidic LabCard™ (ACLARA Biosciences, Inc.). Typically, a LabCard™ containing a 64-channel array is used, but no special changes are needed to run the assay on a 96- or 32-channel card, or other configuration.
(§3) The configuration of channels for each separation on a LabCard is shown schematically in FIG. 13. The channel network may be a double-T network as shown or a cross network, i.e. where wells 110 and 114 in the figure are directly opposed. A suitable separation medium consists of 1% PEO in 50 mM HEPES (pH 7.2). In a typical separation, sample is injected from well 110 to well 114 at an injection voltage of 550V for e.g. 35 sec. Separation is carried out from well 104 to well 106 for e.g. 20 sec., with the voltages of 0V, 380V, 800V, and 380V in wells 104, 110, 106, and 114, respectively, resulting in a field strength of 455V/cm. […]

ADAM 10 [2] = test: Whole cell ADAM 10 assay: cleavage of CD40L-FL by Rat-1 cells with GPCR ligands; details: CD40L-FL substrate
Description: as §1, §2, §3

Row | Compound | formation of TNF-α-FL cleavage product (ADAM 17 activity) (ADAM 17) | ADAM 10 activity (ADAM 10 [1]) | ADAM 10 activity (amount of CD40L-FL cleavage product) (ADAM 10 [2]) | further results
1 | CCCCCCCCCCCCCC(=O)O[C@@H]1[C@@H](C)[C@@]2(O)[C@@H](C=C(CO)C[C@]3(O)C(=O)C(C)=C[C@@H]23)[C@@H]2C(C)(C)[C@]12OC(C)=O [PMA, phorbol myristate acetate] | significantly lower; also recorded: significantly reduced | decline |  | 
2 | lysophosphatidic acid [LPA] |  |  | increased | 
3 | endothelin-1: known ligand for GPCRs (CSCSSLMDKECVYFCHLDIIW) |  |  | decreased | 
4 | OC[C@H]1O[C@@](CO)(O[C@H]2O[C@H](CO)[C@@H](O)[C@H](O)[C@H]2O)[C@@H](O)[C@@H]1O [sucrose] |  |  |  | TNF-α-FL cleavage activity on addition of sucrose in the presence of PMA (ADAM 17; 450 mM sucrose with PMA): restored the activity
5 | CNC(=O)[C@H](Cc1c[nH]c2ccccc12)NC(=O)[C@@H](CC(=O)NO)CC(C)C [GM6001] | completely inhibited |  |  | 
6 | C[N+](C)(C)CCOC(N)=O [carbachol] |  | activated |  | 
